Experimental data taken from PubChem BioAssay AID1918942 (Molecular Pharmacology Branch, DTP, NCI, 2023).

Tested on: 743489-274-T-PDC complex spheroid viability
Test: Anticancer human tumor 743489-274-T-PDC patient-derived renal cell carcinoma cell line growth inhibition
Conditions: for IC50: curve of first compound; for viability, T/C: stronger effect = lower value
Method in brief: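 Complex spheroids of tumor cells with HUVEC and human MSCs, exposed to iadademstat combined with other agents. Each agent tested in half-log steps from near clinical Cmax (else 10 microM top), DMSO ≤0.25%.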

[1] = second compound 0.1 µM, first compound 0.0316 µM
[2] = second compound 0.1 µM, first compound 0.1 µM
[3] = second compound 0.1 µM, first compound 0.316 µM
[4] = second compound 0.1 µM, first compound 1 µM
[5] = second compound 0.1 µM, first compound 3.16 µM
[6] = second compound 0.1 µM, first compound 10 µM
[7] = second compound 0.316 µM, first compound 0.0316 µM
[8] = second compound 0.316 µM, first compound 0.1 µM
[9] = second compound 0.316 µM, first compound 0.316 µM
[10] = second compound 0.316 µM, first compound 1 µM
[11] = second compound 0.316 µM, first compound 3.16 µM
[12] = second compound 0.316 µM, first compound 10 µM
[13] = second compound 1 µM, first compound 0.0316 µM
[14] = second compound 1 µM, first compound 0.1 µM
[15] = second compound 1 µM, first compound 0.316 µM
[16] = second compound 1 µM, first compound 1 µM
[17] = second compound 1 µM, first compound 3.16 µM
[18] = second compound 1 µM, first compound 10 µM
[19] = second compound 3.16 µM, first compound 0.0316 µM
[20] = second compound 3.16 µM, first compound 0.1 µM
[21] = second compound 3.16 µM, first compound 0.316 µM
[22] = second compound 3.16 µM, first compound 1 µM
[23] = second compound 3.16 µM, first compound 3.16 µM
[24] = second compound 3.16 µM, first compound 10 µM
[25] = second compound 10 µM, first compound 0.0316 µM
[26] = second compound 10 µM, first compound 0.1 µM
[27] = second compound 10 µM, first compound 0.316 µM
[28] = second compound 10 µM, first compound 1 µM
[29] = second compound 10 µM, first compound 3.16 µM
[30] = second compound 10 µM, first compound 10 µM
[31] = second compound 0.1 µM, first compound 0.00316 µM
[32] = second compound 0.1 µM, first compound 0.01 µM
[33] = second compound 0.316 µM, first compound 0.00316 µM
[34] = second compound 0.316 µM, first compound 0.01 µM
[35] = second compound 1 µM, first compound 0.00316 µM
[36] = second compound 1 µM, first compound 0.01 µM
[37] = second compound 3.16 µM, first compound 0.00316 µM
[38] = second compound 3.16 µM, first compound 0.01 µM
[39] = second compound 10 µM, first compound 0.00316 µM
[40] = second compound 10 µM, first compound 0.01 µM
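Also: spheroids exposed to compounds for 7 days before readout.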
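For viability, T/C in this document: 100% = DMSO vehicle control wells.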

SMILES: CC(C)c1c(-c2ccccc2)nc2c(C#N)c[nH]n2c1=O + NC1CC1c1ccc(-c2cccc(O)c2)cc1
- IC50 (second compound 0.1 µM): > 10000 nM
- IC50 (second compound 0.316 µM): > 10000 nM
- IC50 (second compound 1 µM): > 10000 nM
- IC50 (second compound 3.16 µM): > 10000 nM
- IC50 (second compound 10 µM): > 10000 nM
- viability, T/C [1]: 110%
- viability, T/C [2]: 112%
- viability, T/C [3]: 131%
- viability, T/C [4]: 105%
- viability, T/C [5]: 113%
- viability, T/C [6]: 109%
- viability, T/C [7]: 104%
- viability, T/C [8]: 107%
- viability, T/C [9]: 134%
- viability, T/C [10]: 100%
- viability, T/C [11]: 115%
- viability, T/C [12]: 102%
- viability, T/C [13]: 110%
- viability, T/C [14]: 117%
- viability, T/C [15]: 108%
- viability, T/C [16]: 116%
- viability, T/C [17]: 108%
- viability, T/C [18]: 114%
- viability, T/C [19]: 106%
- viability, T/C [20]: 108%
- viability, T/C [21]: 114%
- viability, T/C [22]: 111%
- viability, T/C [23]: 105%
- viability, T/C [24]: 124%
- viability, T/C [25]: 130%
- viability, T/C [26]: 105%
- viability, T/C [27]: 116%
- viability, T/C [28]: 102%
- viability, T/C [29]: 106%
- viability, T/C [30]: 109%

SMILES: CC1COCCN1c1cc(-c2ccnn2C)c2ccnc(-c3ccn[nH]3)c2n1 (stereo not given) + NC1CC1c1ccc(-c2cccc(O)c2)cc1
- IC50 (second compound 0.1 µM): 448 nM
- IC50 (second compound 0.316 µM): > 1000 nM
- IC50 (second compound 1 µM): 716 nM
- IC50 (second compound 3.16 µM): 540 nM
- IC50 (second compound 10 µM): 518 nM
- viability, T/C [31]: 109%
- viability, T/C [32]: 88%
- viability, T/C [1]: 85.2%
- viability, T/C [2]: 62.9%
- viability, T/C [3]: 51.2%
- viability, T/C [4]: 44.3%
- viability, T/C [33]: 111%
- viability, T/C [34]: 104%
- viability, T/C [7]: 85.5%
- viability, T/C [8]: 65.5%
- viability, T/C [9]: 64.5%
- viability, T/C [10]: 51.9%
- viability, T/C [35]: 98.2%
- viability, T/C [36]: 103%
- viability, T/C [13]: 82.5%
- viability, T/C [14]: 68.9%
- viability, T/C [15]: 64.7%
- viability, T/C [16]: 44.5%
- viability, T/C [37]: 101%
- viability, T/C [38]: 90.6%
- viability, T/C [19]: 83.8%
- viability, T/C [20]: 75.6%
- viability, T/C [21]: 55.5%
- viability, T/C [22]: 41.5%
- viability, T/C [39]: 90.8%
- viability, T/C [40]: 98.1%
- viability, T/C [25]: 80%
- viability, T/C [26]: 75%
- viability, T/C [27]: 53.7%
- viability, T/C [28]: 43.6%

SMILES: COc1ccc([C@@H](O)c2cc(-c3ncnc4cc(N5CCOCC5)ccc34)c(F)cc2Cl)nn1 + NC1CC1c1ccc(-c2cccc(O)c2)cc1
- IC50 (second compound 0.1 µM): 643 nM
- IC50 (second compound 0.316 µM): 979 nM
- IC50 (second compound 1 µM): 833 nM
- IC50 (second compound 3.16 µM): 611 nM
- IC50 (second compound 10 µM): 918 nM
- viability, T/C [1]: 101%
- viability, T/C [2]: 93.6%
- viability, T/C [3]: 63%
- viability, T/C [4]: 38.6%
- viability, T/C [5]: 31.9%
- viability, T/C [6]: 15.4%
- viability, T/C [7]: 99.7%
- viability, T/C [8]: 92.7%
- viability, T/C [9]: 68.8%
- viability, T/C [10]: 57.4%
- viability, T/C [11]: 24.1%
- viability, T/C [12]: 32%
- viability, T/C [13]: 94.3%
- viability, T/C [14]: 93%
- viability, T/C [15]: 80.2%
- viability, T/C [16]: 43.4%
- viability, T/C [17]: 25%
- viability, T/C [18]: 16.8%
- viability, T/C [19]: 93.6%
- viability, T/C [20]: 94.4%
- viability, T/C [21]: 59.4%
- viability, T/C [22]: 41.2%
- viability, T/C [23]: 27.5%
- viability, T/C [24]: 17.4%
- viability, T/C [25]: 99.1%
- viability, T/C [26]: 111%
- viability, T/C [27]: 74.3%
- viability, T/C [28]: 49.5%
- viability, T/C [29]: 27.1%
- viability, T/C [30]: 16.6%

SMILES: O=C(C=Cn1cnc(-c2cc(C(F)(F)F)cc(C(F)(F)F)c2)n1)NNc1cnccn1 + NC1CC1c1ccc(-c2cccc(O)c2)cc1
- IC50 (second compound 0.1 µM): > 1000 nM
- IC50 (second compound 0.316 µM): > 1000 nM
- IC50 (second compound 1 µM): > 1000 nM
- IC50 (second compound 3.16 µM): > 1000 nM
- IC50 (second compound 10 µM): > 1000 nM
- viability, T/C [31]: 97.6%
- viability, T/C [32]: 103%
- viability, T/C [1]: 113%
- viability, T/C [2]: 85.8%
- viability, T/C [3]: 97.9%
- viability, T/C [4]: 86.2%
- viability, T/C [33]: 102%
- viability, T/C [34]: 99.8%
- viability, T/C [7]: 108%
- viability, T/C [8]: 99.6%
- viability, T/C [9]: 76.4%
- viability, T/C [10]: 74.6%
- viability, T/C [35]: 99.1%
- viability, T/C [36]: 103%
- viability, T/C [13]: 118%
- viability, T/C [14]: 88%
- viability, T/C [15]: 89.4%
- viability, T/C [16]: 67.4%
- viability, T/C [37]: 98.7%
- viability, T/C [38]: 105%
- viability, T/C [19]: 119%
- viability, T/C [20]: 91.3%
- viability, T/C [21]: 74.6%
- viability, T/C [22]: 69.5%
- viability, T/C [39]: 96.2%
- viability, T/C [40]: 101%
- viability, T/C [25]: 102%
- viability, T/C [26]: 98.6%
- viability, T/C [27]: 86.1%
- viability, T/C [28]: 57.4%
